Measurements: US10604528B2, “Galunisertib crystalline form, preparation method thereof and use thereof” (Crystal Pharmaceutical (Suzhou) Co., Ltd., priority 2016, dated 2020)
Converted amounts (≈) assume the structure as drawn. “Also recorded” adds a separate entry of the source. Like-named read-outs stand apart in the source and are kept apart here.

Tests used:
Format in all cases: physicochemical
[1] = Long-term and accelerated solid-state stability (XRPD)
Procedure: Solid samples of Form A and Form 1 were stored under different conditions of 25° C./60% RH, 40° C./75% RH. 60° C./75% RH and 80° C.

[2] = Particle size distribution (laser particle size analyzer, wet process)
Procedure: The particle size distribution test in the present disclosure is acquired by the S3500 laser particle size analyzer of Microtrac. Microtrac S3500 is equipped with the SDC (Sample Delivery Controller). The test is carried out by wet process, and the dispersion medium is Isopar G. The parameters are as follow: […]

[3] = Hygroscopicity by dynamic vapor sorption (DVS); conditions: for Hygroscopicity class / Weight gain at 80% RH: 80% RH; for Hygroscopicity class: Chinese Pharmacopoeia 2015 definition; for Weight gain at 80% RH / Weight gain at 95% RH: DVS
Procedure: Dynamic vapor sorption (DVS) was applied to test hygroscopicity of Form A and Form 1 disclosed in WO2007018818A1 with about 10 mg of samples.
Description and definition of hygroscopicity (Chinese Pharmacopoeia 2015 edition, 9103 General drug hygroscopic test guidelines, test at 25° C.±1° C., 80% RH).

[4] = Kinetic solubility in FaSSIF, FeSSIF and water (HPLC)
Procedure: Form A of the present disclosure and Form 1 of the prior art were suspended into FaSSIF (Fasted state simulated intestinal fluids, pH=6.5), FeSSIF (Fed state simulated intestinal fluids, pH=5.0), SGF (Simulated gastric fluids, pH=1.8) and water to get saturated solutions. After equilibrated for 1 h, 4 h and 24 h, concentrations of the saturated solutions were measured by HPLC.

[5] = Mechanical stability (manual grinding, XRPD); conditions: ground manually for 5 minutes in mortar
Procedure: Solid sample of Form A of the present disclosure was ground manually for 5 minutes in mortar. The XRPD pattern overlay of the solids before and after grinding is substantially as depicted in FIG. 9 (top: XRPD pattern before grinding, bottom: XRPD pattern after grinding).

SMILES	Solid form after storage ([1]; 25° C./60% RH, 12 months)	Solid form after storage ([1]; 40° C./75% RH, 12 months)	Solid form after storage ([1]; 60° C./75% RH, 2 weeks)	Solid form after storage ([1]; 80° C., 2 weeks)	D10 ([2]; ultrasonication time 0 s)	D50 ([2]; ultrasonication time 0 s)	D90 ([2]; ultrasonication time 0 s)	MV (average particle size calculated by volume) ([2]; ultrasonication time 0 s)	D10 ([2]; ultrasonication time 30 s)	D50 ([2]; ultrasonication time 30 s)	D90 ([2]; ultrasonication time 30 s)	MV (average particle size calculated by volume) ([2]; ultrasonication time 30 s)	D10 ([2]; ultrasonication time 60 s)	D50 ([2]; ultrasonication time 60 s)	D90 ([2]; ultrasonication time 60 s)	MV (average particle size calculated by volume) ([2]; ultrasonication time 60 s)	D10 ([2]; ultrasonication time 90 s)	D50 ([2]; ultrasonication time 90 s)	D90 ([2]; ultrasonication time 90 s)	MV (average particle size calculated by volume) ([2]; ultrasonication time 90 s)	further results
Cc1cccc(-c2nn3c(c2-c2ccnc4ccc(C(N)=O)cc24)CCC3)n1 [Form 1, 2-(6-methyl-pyridin-2-yl)-3-[6-amido-quinolin-4-yl)-5,6-dihydro-4H-pyrrolo[1,2-b]pyrazole, reference compound]	Form 1	Form 1	Form 1	partially converts to Form A; also recorded: Form 1 + Form A	33.41 μm	56.97 μm	95.11 μm	62.25 μm	24.89 μm	42.56 μm	68.40 μm	45.75 μm	22.40 μm	37.88 μm	59.87 μm	40.41 μm	20.94 μm	35.58 μm	55.95 μm	37.83 μm	Hygroscopicity class [3]: slightly hygroscopic; Weight gain at 80% RH [3]: 0.33%; Weight gain at 95% RH [3]: 0.53%; solubility ([4]; FaSSIF and water, pH 6.5, fassif, thermodynamic from solid, in both FaSSIF and H2O, all sampling points, read-out: solubility): < 60 µg/mL; solubility ([4]; FaSSIF pH=6.5, 1 h): 58 µg/mL (≈ 157 µM); solubility ([4]; FaSSIF pH=6.5, 4 h): 51 µg/mL (≈ 138 µM); solubility ([4]; FaSSIF pH=6.5, 24 h): 52 µg/mL (≈ 141 µM); solubility ([4]; FeSSIF pH=5.0, 1 h): 120 µg/mL (≈ 325 µM); solubility ([4]; FeSSIF pH=5.0, 4 h): 110 µg/mL (≈ 298 µM); solubility ([4]; FeSSIF pH=5.0, 24 h): 120 µg/mL (≈ 325 µM); solubility ([4]; H2O, 1 h): 56 µg/mL (≈ 152 µM); solubility ([4]; H2O, 4 h): 55 µg/mL (≈ 149 µM); solubility ([4]; H2O, 24 h): 55 µg/mL (≈ 149 µM)
Cc1cccc(-c2nn3c(c2-c2ccnc4ccc(C(N)=O)cc24)CCC3)n1 [Form A, 2-(6-methyl-pyridin-2-yl)-3-[6-amido-quinolin-4-yl)-5,6-dihydro-4H-pyrrolo[1,2-b]pyrazole]	Form A	No form change; also recorded: Form A	Form A	Form A	50.28 μm	170.3 μm	356.4 μm	190.8 μm	34.37 μm	106.2 μm	210.5 μm	116.1 μm	29.37 μm	92.81 μm	192.2 μm	104.1 μm	26.40 μm	83.69 μm	167.2 μm	91.94 μm	Crystalline form (XRPD pattern) after grinding [5]: doesn't change significantly; also recorded: No form change; Time the form keeps stable ([1]; 25° C./60% RH and 40° C./75% RH): at least 12 months; Time the form keeps stable ([1]; 60° C./75% RH and 80° C.): at least 2 weeks; Hygroscopicity class [3]: non-hygroscopic or almost non-hygroscopic; Weight gain at 80% RH [3]: 0.15%; Weight gain at 95% RH [3]: 0.23%; Solid Form after DVS test ([3]; XRPD after DVS test): does not change after DVS test; also recorded: Form A (no change); solubility ([4]; FaSSIF pH=6.5, 1 h): 230 µg/mL (≈ 623 µM); solubility ([4]; FaSSIF pH=6.5, 4 h): 270 µg/mL (≈ 731 µM); solubility ([4]; FaSSIF pH=6.5, 24 h): 520 µg/mL (≈ 1410 µM); solubility relative to Form 1 ([4]; FaSSIF pH=6.5, 24 h): ten times higher than that of Form 1; solubility ([4]; FeSSIF pH=5.0, 1 h): 480 µg/mL (≈ 1300 µM); solubility ([4]; FeSSIF pH=5.0, 4 h): 820 µg/mL (≈ 2220 µM); solubility ([4]; FeSSIF pH=5.0, 24 h): 640 µg/mL (≈ 1730 µM); solubility ([4]; H2O, 1 h): 170 µg/mL (≈ 460 µM); solubility ([4]; H2O, 4 h): 250 µg/mL (≈ 677 µM); solubility ([4]; H2O, 24 h): 310 µg/mL (≈ 839 µM)
